Data taken from patent US6369075B1, “7[4′-trifluoromethyl-biphenyl-2-carbonyl)amino]-quinoline-3-carboxylic acid amides, and method of inhibiting the secretion of apolipoprotein B” (Pfizer, Inc., priority 1999, dated 2002).

## CCS(=O)(=O)O.CCS(=O)(=O)O.O=C(N[C@@H](c1ccccc1)c1ccccn1)c1cnc2cc(NC(=O)c3ccccc3-c3ccc(C(F)(F)F)cc3)ccc2c1 [Example 2D, (S)-7-[(4′-Trifluoromethyl-biphenyl-2-carbonyl)-amino]-quinoline-3-carboxylic acid (phenyl-pyridin-2-yl-methyl)-amide, bis-ethanesulfonate]
  melting point: 158 °C
